Laboratory results as given in paper PMC9405123, “Design, Synthesis and Mechanistic Studies of Novel Isatin-Pyrazole Hydrazone Conjugates as Selective and Potent Bacterial MetAP Inhibitors” (Antibiotics, 2022).
Values after ≈ are worked out from the molar mass of the structure shown. Read-outs that look alike come from different tables or passages of the source.

Experiments:
HK1 = test: MIC on environmental MDR isolate (microdilution)
HK32 = test: MIC on environmental MDR isolate (microdilution); conditions: Enterobacter cloacae
HK41 = test: MIC on environmental MDR isolate (microdilution); conditions: Enterobacter cloacae
HK43 = test: MIC on environmental MDR isolate (microdilution); conditions: Exiguobacterium mexicanum
HK91 = test: MIC on environmental MDR isolate (microdilution); conditions: Ralstonia
SH28 = test: MIC on environmental MDR isolate (microdilution); conditions: Aeromonas caviae
SH34 = test: MIC on environmental MDR isolate (microdilution); conditions: Serratia marcescens
LG1 = test: MIC on environmental MDR isolate (microdilution)
LG20 = test: MIC on environmental MDR isolate (microdilution); conditions: Enterobacter, isolate LG20 Enterobacter sp.
LG24 = test: MIC on environmental MDR isolate (microdilution); conditions: Escherichia coli
LG33 = test: MIC on environmental MDR isolate (microdilution); conditions: Enterobacter
LG51 = test: MIC on environmental MDR isolate (microdilution); conditions: Escherichia coli
LG71 = test: MIC on environmental MDR isolate (microdilution); conditions: Enterobacter cloacae
JST28 = test: MIC on environmental MDR isolate (microdilution); conditions: Escherichia coli
JST61 = test: MIC on environmental MDR isolate (microdilution); conditions: Pantoea agglomerans
JST63 = test: MIC on environmental MDR isolate (microdilution)
JST68 = test: MIC on environmental MDR isolate (microdilution); conditions: Escherichia coli
JST71 = test: MIC on environmental MDR isolate (microdilution); conditions: Enterobacter
JST78 = test: MIC on environmental MDR isolate (microdilution); conditions: Escherichia coli
SD5 = test: MIC on environmental MDR isolate (microdilution); conditions: Escherichia coli, isolate SD5 E. coli
SD6 = test: MIC on environmental MDR isolate (microdilution); conditions: Escherichia coli, isolate SD6 E. coli
E. faecalis [1] = test: Growth inhibition screening (broth dilution); type: cell-based, Enterococcus faecalis; conditions: Enterococcus faecalis
Description: (§1) In vitro screening of the compounds (PS1–14) was performed to assess the antibacterial activity against three Gram-positive (Staphylococcus aureus, Enterococcus faecalis and Bacillus subtilis,) and three Gram-negative (Pseudomonas aeruginosa, Klebsiella pneumonia and Escherichia coli) bacterial strains using the standard NCCLS broth dilution assay. The study’s standard drugs were ciprofloxacin (CIP) and ampicillin (AMP). Compounds were dissolved in a polar solvent (DMSO) and distributed into a 96-well plate in 200 µL of nutrient broth medium, with a final concentration of the compounds […] in each well. The bacterial cells (about 2.5 × 10^5 cells/mL) were inoculated into each well and incubated at 37 °C overnight. After incubation, the growth was measured by turbidity of the culture at 590 nm by spectrophotometer.

B. subtilis [2] = test: Growth inhibition screening (broth dilution); type: cell-based, Bacillus subtilis; conditions: Bacillus subtilis
Description: as §1

S. aureus [3] = test: Growth inhibition screening (broth dilution); type: cell-based, Staphylococcus aureus; conditions: Staphylococcus aureus
Description: as §1

P. aeruginosa [4] = test: Growth inhibition screening (broth dilution); type: cell-based, Pseudomonas aeruginosa; conditions: Pseudomonas aeruginosa
Description: as §1

E. coli [5] = test: Growth inhibition screening (broth dilution); type: cell-based, Escherichia coli; conditions: Escherichia coli
Description: as §1

K. pneumoniae [6] = test: Growth inhibition screening (broth dilution); type: cell-based, Klebsiella pneumonia; conditions: Klebsiella pneumoniae
Description: as §1

E. faecalis [7] = test: Minimum inhibitory concentration (broth dilution); type: cell-based; conditions: Enterococcus faecalis, alone
B. subtilis [8] = test: Minimum inhibitory concentration (broth dilution); type: cell-based; conditions: Bacillus subtilis, alone
S. aureus [9] = test: Minimum inhibitory concentration (broth dilution); type: cell-based; conditions: Staphylococcus aureus, alone
P. aeruginosa [10] = test: Minimum inhibitory concentration (broth dilution); type: cell-based; conditions: Pseudomonas aeruginosa, alone
E. coli [11] = test: Minimum inhibitory concentration (broth dilution); type: cell-based, Escherichia coli; conditions: alone
K. pneumoniae [12] = test: Minimum inhibitory concentration (broth dilution); type: cell-based, Klebsiella pneumonia; conditions: Klebsiella pneumoniae, alone, read-out: MIC
E. faecalis [13] = test: Combination study with AMP or CIP
S. aureus [14] = test: Combination study with AMP or CIP
P. aeruginosa [15] = test: Combination study with AMP or CIP; conditions: combination PS9 + AMP
E. coli [16] = test: Combination study with AMP or CIP; conditions: combination PS9 + AMP
K. pneumoniae [17] = test: Combination study with AMP or CIP
[18] = test system: human red blood cells (hRBCs); test: Hemolytic activity; type: cell-based
Description: The compound PS9 was evaluated for hemolytic effect on human RBCs. In brief, RBCs suspension 10% (v/v) cleaned with 1 × PBS and resuspended again in 1 × PBS (pH 7.4). […] The samples were centrifuged and absorbance of the supernatant was taken at 415 nm to obtain the percentage of RBCs lysis. Triton X-100 with 1% (v/v) was used as a positive control. Percentage of RBCs lysis was calculated as:% RBCs lysis = (OD415nm sample − OD415nm PBS)/(OD415nm Triton X-100 1% − OD415nm PBS)(1)

EcMetAP1 = test system: EcMetAP1; set-up: method as in PMID 15506752; conditions: Co(II) as the cofactor; cited from earlier work

## CO/N=C(\C(=O)N[C@@H]1C(=O)N2C(C(=O)O)=C(COC(C)=O)CS[C@H]12)c1csc(N)n1 [CTX, cefotaxime]
HK1
  MIC: 128 µg/mL (≈ 281 µM)
HK32
  MIC: 256 µg/mL (≈ 562 µM)
HK41
  MIC: 32 µg/mL (≈ 70.3 µM)
HK43
  MIC: 1020 µg/mL (≈ 2250 µM)
HK91
  MIC: 8 µg/mL (≈ 17.6 µM)
SH28
  MIC: < 2 µg/mL
SH34
  MIC: 8 µg/mL (≈ 17.6 µM)
LG1
  MIC: 16 µg/mL (≈ 35.1 µM)
LG20
  MIC: 32 µg/mL (≈ 70.3 µM)
LG24
  MIC: 64 µg/mL (≈ 141 µM)
LG33
  MIC: 8 µg/mL (≈ 17.6 µM)
LG51
  MIC: 64 µg/mL (≈ 141 µM)
LG71
  MIC: 1020 µg/mL (≈ 2250 µM)
JST28
  MIC: 8 µg/mL (≈ 17.6 µM)
JST61
  MIC: 256 µg/mL (≈ 562 µM)
JST63
  MIC: 128 µg/mL (≈ 281 µM)
JST68
  MIC: 512 µg/mL (≈ 1120 µM)
JST71
  MIC: 1020 µg/mL (≈ 2250 µM)
JST78
  MIC: 128 µg/mL (≈ 281 µM)
SD5
  MIC: 1000 µg/mL (≈ 2200 µM)
SD6
  MIC: 1000 µg/mL (≈ 2200 µM)

## CC1(C)S[C@@H]2[C@H](NC(=O)[C@H](N)c3ccccc3)C(=O)N2[C@H]1C(=O)O [AMP, ampicillin, reference compound]
E. faecalis [1]
  inhibition at 250 µg/mL: 100%
B. subtilis [2]
  inhibition at 250 µg/mL: 100%
S. aureus [3]
  inhibition at 250 µg/mL: 100%
P. aeruginosa [4]
  inhibition at 250 µg/mL: 100%
E. coli [5]
  inhibition at 250 µg/mL: 100%
K. pneumoniae [6]
  inhibition at 250 µg/mL: 100%
E. faecalis [7]
  MIC: 16 µg/mL (≈ 45.8 µM)
B. subtilis [8]
  MIC: 0.25 µg/mL (≈ 0.715 µM)
S. aureus [9]
  MIC: 0.25 µg/mL (≈ 0.715 µM)
P. aeruginosa [10]
  MIC: 1 µg/mL (≈ 2.86 µM)
E. coli [11]; Escherichia coli, read-out: MIC
  MIC: 1 µg/mL (≈ 2.86 µM)
E. coli [11]
  MIC: 1 µg/mL (≈ 2.86 µM)
K. pneumoniae [12]
  MIC: 2 µg/mL (≈ 5.72 µM)
E. faecalis [13]; combination PS6 + AMP
  MIC in Combination: 0.50 µg/mL
E. faecalis [13]; combination PS9 + AMP
  MIC in Combination: 0.5 µg/mL
S. aureus [14]; combination PS6 + AMP
  MIC in Combination: 0.0625 µg/mL
S. aureus [14]; combination PS9 + AMP
  MIC in Combination: 0.0625 µg/mL
P. aeruginosa [15]
  MIC in Combination: 0.25 µg/mL
E. coli [16]
  MIC in Combination: 0.25 µg/mL
K. pneumoniae [17]; combination PS6 + AMP
  MIC in Combination: 0.25 µg/mL
K. pneumoniae [17]; combination PS9 + AMP
  MIC in Combination: 0.5 µg/mL
HK1
  MIC: 256 µg/mL (≈ 733 µM)
HK32
  MIC: 1020 µg/mL (≈ 2930 µM)
HK41
  MIC: 256 µg/mL (≈ 733 µM)
HK43
  MIC: 1020 µg/mL (≈ 2930 µM)
HK91
  MIC: 8 µg/mL (≈ 22.9 µM)
SH28
  MIC: 16 µg/mL (≈ 45.8 µM)
SH34
  MIC: 8 µg/mL (≈ 22.9 µM)
LG20
  MIC: 32 µg/mL (≈ 91.6 µM)
LG24
  MIC: < 2 µg/mL
LG33
  MIC: 8 µg/mL (≈ 22.9 µM)
LG51
  MIC: 1020 µg/mL (≈ 2930 µM)
LG71
  MIC: 512 µg/mL (≈ 1470 µM)
JST28
  MIC: 1020 µg/mL (≈ 2930 µM)
JST61
  MIC: 128 µg/mL (≈ 366 µM)
JST63
  MIC: 128 µg/mL (≈ 366 µM)
JST68
  MIC: 64 µg/mL (≈ 183 µM)
JST71
  MIC: 1020 µg/mL (≈ 2930 µM)
JST78
  MIC: > 1020 µg/mL
SD5
  MIC: 32 µg/mL (≈ 91.6 µM)
SD6
  MIC: 1000 µg/mL (≈ 2860 µM)

## Triton-X 100 [reference compound]
[18]
  hemolysis: 100%

## O=C(Nc1nccs1)C(=O)NC1CCCC1 [A, N1-cyclopentyl-N2-(thiazol-2-yl)oxalamide]
EcMetAP1
  IC50: 67 nM
